Measured values from patent publication US11661430B2, “Tetrazole derivatives as TRPA1 inhibitors” (Boehringer Ingelheim International GmbH, priority 2020, dated 2023).

Experiments:
human TRPA1 ion channel = target: T1, human TRPA1 ion channel (Homo sapiens, UniProt O75762); test: Assay A: TRPA1 assay (FLIPR, AITC-induced intracellular calcium in HEK293 cells); assay type: cell-based; conditions: HEK293 cells over-expressing human TRPA1, AITC 10 μM, FLIPRtetra; read-out: hTRPA1 IC50
T1 construct: host or cells: HEK293
T1 sequence (O75762 whole entry): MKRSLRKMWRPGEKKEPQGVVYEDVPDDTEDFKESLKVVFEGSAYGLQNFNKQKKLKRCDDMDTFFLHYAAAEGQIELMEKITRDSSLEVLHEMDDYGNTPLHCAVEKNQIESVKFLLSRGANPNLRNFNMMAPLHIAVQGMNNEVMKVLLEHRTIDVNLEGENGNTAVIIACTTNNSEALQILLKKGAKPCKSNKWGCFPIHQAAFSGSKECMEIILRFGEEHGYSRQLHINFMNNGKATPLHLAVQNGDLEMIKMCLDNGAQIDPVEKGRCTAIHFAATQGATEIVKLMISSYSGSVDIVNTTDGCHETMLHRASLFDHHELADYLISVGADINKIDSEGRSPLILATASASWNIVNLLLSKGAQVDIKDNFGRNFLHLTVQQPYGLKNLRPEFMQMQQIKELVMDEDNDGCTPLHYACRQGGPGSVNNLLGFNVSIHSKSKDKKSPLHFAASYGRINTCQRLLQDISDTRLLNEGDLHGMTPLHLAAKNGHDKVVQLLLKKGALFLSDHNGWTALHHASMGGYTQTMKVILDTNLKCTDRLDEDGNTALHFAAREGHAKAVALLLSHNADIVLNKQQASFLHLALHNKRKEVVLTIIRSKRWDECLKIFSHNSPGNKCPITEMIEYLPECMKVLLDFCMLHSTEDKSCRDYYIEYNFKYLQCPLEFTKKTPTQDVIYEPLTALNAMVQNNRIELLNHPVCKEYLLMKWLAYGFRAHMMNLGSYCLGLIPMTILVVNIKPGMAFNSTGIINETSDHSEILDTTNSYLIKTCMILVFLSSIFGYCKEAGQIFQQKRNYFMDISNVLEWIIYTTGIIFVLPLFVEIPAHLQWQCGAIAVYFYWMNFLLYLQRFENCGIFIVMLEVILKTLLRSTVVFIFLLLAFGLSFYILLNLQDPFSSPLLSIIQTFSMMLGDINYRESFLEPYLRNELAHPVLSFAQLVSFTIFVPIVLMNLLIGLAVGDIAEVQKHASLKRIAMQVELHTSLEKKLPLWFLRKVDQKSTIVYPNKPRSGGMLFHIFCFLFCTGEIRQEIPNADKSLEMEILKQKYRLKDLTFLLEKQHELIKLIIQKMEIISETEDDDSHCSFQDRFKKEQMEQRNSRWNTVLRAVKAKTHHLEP
Experimental: A human HEK293 cell line over-expressing the human TRPA1 ion channel (Perkin Elmer, Product No. AX-004-PCL) is used as a test system for compound efficacy and potency. Compound activity is determined by measuring the effect of compounds on intracellular calcium concentration induced by AITC (Allylisothiocyanat) agonism in a FLIPRtetra system (Molecular Devices).
The cells are obtained as frozen cells in cryo-vials and stored until use at −150° C. Cells are grown in culture medium (MEM/EBSS medium with 10% FCS and 0.4 mg/ML Geneticin). […] For sub-culturing cells are detached from flasks by Versene. At the day before the assay, cells are detached, washed twice with medium (MEM/EBSS medium with 10% FCS) and 20000 cells in 20 μl/well are seeded to Poly D-Lysin biocoated 384-well plates (black, clear bottom, Cat. 356697) from Corning. Plates are incubated for 24 hours at 37° C./5% CO2 before use in the assay.
The test compounds are dissolved in 100% DMSO at a concentration of 10 mM and in a first step diluted in DMSO to a concentration of 5 mM, followed by serial dilution steps in 100% DMSO. Dilution factor and number of dilution steps may vary according to needs. Typically 8 different concentrations by 1:5 dilutions are prepared, further intermediate dilutions (1:20) of the substances are carried out with HBSS/HEPES buffer (1×HEPES, Cat. 14065 from Gibco, 20 mM HEPES, Cat. 83264 from SIGMA, 0.1% BSA Cat. 11926 from Invitrogen, pH 7.4
At the assay day cells are washed 3× with assay puffer, 20 μL buffer remaining in the wells after washing. 10 μL Ca6 kit (Cat. R8191 Molecular Devices) loading buffer in HBSS/HEPES is added to the cells and the plates are incubated with lid for 120 minutes at 37°/5% CO2. […] Finally 10 μL of the agonist AITC 50 μM dissolved in HBSS/HEPES buffer/0.05% DMSO (final concentration 10 μM) is added to the wells followed by an additional read on the FLIPRtetra device for 10 minutes. The area under the signal curve (AUC) after AITC addition is used for IC50/% inhibition calculations
Data Evaluation and Calculation:
Each assay microtiter plate contains wells with vehicle (1% DMSO) controls instead of compound as controls for AITC induced luminescence (100% CTL; high controls) and wells with vehicle controls without AITC as controls for non-specific changes in luminescence (0% CTL; low controls).
The analysis of the data is performed by the calculation of the area under signal curve of the individual wells. Based on this values the % value for the measurement of each substance concentration is calculated (AUC(sample)−AUC(low))*100/(AUC(high)−AUC(low)) using MegaLab software (in house development). The IC50 values are calculated from the % control values using MegaLab software. Calculation: [y=(a−d)/(1+(x/c)^b)+d], a=low value, d=high value; x=conc M; c=IC50 M; b=hill; y=% ctrl

[1] = Assay B: Microsomal clearance; assay type: in vitro ADME, human; conditions: pooled liver microsomes, 1 μM test compound, 37° C., NADPH
Experimental: Assay B: Microsomal Clearance:
The metabolic degradation of the test compound is assayed at 37° C. with pooled liver microsomes. The final incubation volume of 100 μl per time point contains TRIS buffer pH 7.6 at RT (0.1 M), magnesium chloride (5 mM), microsomal protein (1 mg/ml) and the test compound at a final concentration of 1 μM.
Following a short preincubation period at 37° C., the reactions are initiated by addition of beta-nicotinamide adenine dinucleotide phosphate, reduced form (NADPH, 1 mM) and terminated by transferring an aliquot into solvent after different time points (0, 5, 15, 30, 60 min). Additionally, the NADPH-independent degradation is monitored in incubations without NADPH, terminated at the last time point. The [%] remaining test compound after NADPH independent incubation is reflected by the parameter c(control) (metabolic stability). The quenched incubations are pelleted by centrifugation (10000 g, 5 min). An aliquot of the supernatant is assayed by LC-MS/MS for the amount of parent compound. The half-life (t½ INVITRO) is determined by the slope of the semilogarithmic plot of the concentration-time profile.
The intrinsic clearance (CL_[…]) is calculated by considering the amount of protein in the incubation: CL_[…] [μl/min/mg protein]=(Ln 2/(half-life [min]*protein content [mg/ml]))*1000 CL_[…]_INVIVO [ml/min/kg]=(CL_[…] [μL/min/mg protein]×MPPGL [mg protein/g liver]×liver factor [g/kg bodyweight])/1000 Qh[%]=CL[ml/min/kg]/hepatic blood flow [ml/min/kg])
(§1) Hepatocellularity, human: 120×10e6 cells/g liver
(§2) Liver factor, human: 25.7 g/kg bodyweight
(§3) Blood flow, human: 21 ml/(min×kg)

[2] = Assay C: Hepatocyte clearance; assay type: in vitro ADME, human; conditions: hepatocyte suspension, 1 μM test compound, 5% species serum, six hours
Experimental: Assay C: Hepatocyte Clearance
The metabolic degradation of the test compound is assayed in a hepatocyte suspension. Hepatocytes (cryopreserved) are incubated in Dulbecco's modified eagle medium (supplemented with 3.5 μg glucagon/500 mL, 2.5 mg insulin/500 mL and 3.75 mg/500 mL hydrocortison) containing 5% species serum.
The cells are incubated for six hours (incubator, orbital shaker) and samples (25 μl) are taken at 0, 0.5, 1, 2, 4 and 6 hours. Samples are transferred into acetonitrile and pelleted by centrifugation (5 min). The supernatant is transferred to a new 96-deepwell plate, evaporated under nitrogen and resuspended.
Decline of Parent Compound is Analyzed by HPLC-MS/MS
CLint is calculated as follows CL_[…]=Dose/AUC=(CO/CD)/(AUD+clast/k)×1000/60. C0: initial concentration in the incubation [μM], CD: cell density of vital cells [10e6 cells/mL], AUD: area under the data [μM×h], clast: concentration of last data point [μM], k: slope of the regression line for parent decline [h−1].
The calculated in vitro hepatic intrinsic clearance can be scaled up to the intrinsic in vivo hepatic Clearance and used to predict hepatic in vivo blood clearance (CL) by the use of a liver model (well stirred model). CL_[…]_INVIVO [ml/min/kg]=(CL_[…] [μL/min/10e6 cells]×hepatocellularity [10e6 cells/g liver]×liver factor [g/kg bodyweight])/1000 CL[ml/min/kg]=CL_[…]_INVIVO [ml/min/kg]×hepatic blood flow [ml/min/kg]/(CL_[…]_INVIVO [ml/min/kg]+hepatic blood flow [ml/min/kg]) Qh[%]=CL[ml/min/kg]/hepatic blood flow [ml/min/kg])
as §1, §2, §3

Row | SMILES | IC50 (human TRPA1 ion channel) [nM] | human LM [% Qh] [1] [% Qh] | human Hepatocytes [% Qh] [2] [% Qh]
1 | NC(=O)c1csc2ncn(Cc3nnn(C[C@H](O)c4ccc(Cl)cc4)n3)c(=O)c12 [Example 1, 3-({2-[(2R)-2-(4-chlorophenyl)-2-hydroxyethyl]-2H-1,2,3,4-tetrazol-5-yl}methyl)-4-oxo-3H,4H-thieno[2,3-d]pyrimidine-5-carboxamide] | 28 | <23 | <4
2 | NC(=O)c1csc2ncn(Cc3nnn(C[C@H](O)c4cc5ccc(F)cc5s4)n3)c(=O)c12 [Example 2] |  | 33 | 19
3 | NC(=O)c1csc2ncn(Cc3nnn(C[C@H](O)c4cc5cc(Cl)ccc5o4)n3)c(=O)c12 [Example 3] |  | 27 | 26
4 | NC(=O)c1csc2ncn(Cc3nnn(C[C@H](O)c4ccc5oc(F)cc5c4)n3)c(=O)c12 [Example 4] |  | <23 | 6
5 | NC(=O)c1csc2ncn(Cc3nnn(C[C@H](O)c4cc5ccccc5s4)n3)c(=O)c12 [Example 5] |  | 28 | 20
6 | NC(=O)c1csc2ncn(Cc3nnn(C[C@H](O)c4cc5cc(F)ccc5o4)n3)c(=O)c12 [Example 6] |  | <23 | 26
7 | NC(=O)c1csc2ncn(Cc3nnn(C[C@H](O)c4cc(Cl)c(Cl)s4)n3)c(=O)c12 [Example 7] |  | 34 | 41
8 | NC(=O)c1csc2ncn(Cc3nnn(C[C@H](O)c4cc5cc(Cl)c(F)cc5o4)n3)c(=O)c12 [Example 8] | 26 | 26 | 20
9 | NC(=O)c1csc2ncn(Cc3nnn(C[C@H](O)c4cc5ccccc5o4)n3)c(=O)c12 [Example 9] | 29 | <23 | 14

Further lines, results first:

Row | IC50 (human TRPA1 ion channel) [nM] | human LM [% Qh] [1] [% Qh] | human Hepatocytes [% Qh] [2] [% Qh] | SMILES
10 | 31 | <23 | 8 | Cc1ccc([C@@H](O)Cn2nnc(Cn3cnc4scc(C(N)=O)c4c3=O)n2)cc1 [Example 10]
11 | 31 | <23 | 14 | NC(=O)c1csc2ncn(Cc3nnn(C[C@H](O)c4ccc(Cl)s4)n3)c(=O)c12 [Example 11]
12 | 34 | <23 | <4 | NC(=O)c1csc2ncn(Cc3nnn(C[C@H](O)c4ccc(Br)cc4)n3)c(=O)c12 [Example 12]
13 | 37 | <23 | 10 | NC(=O)c1csc2ncn(Cc3nnn(C[C@H](O)c4cc5cc(F)c(F)cc5o4)n3)c(=O)c12 [Example 13]
14 | 41 | <23 | 14 | NC(=O)c1csc2ncn(Cc3nnn(C[C@H](O)c4cc5cccc(F)c5o4)n3)c(=O)c12 [Example 14]
15 | 65 | <23 | 30 | NC(=O)c1csc2ncn(Cc3nnn(C[C@H](O)c4cc5cc(F)c(Cl)cc5o4)n3)c(=O)c12 [Example 15]
16 | 70 | <23 | 19 | N#Cc1cc2ccc([C@@H](O)Cn3nnc(Cn4cnc5scc(C(N)=O)c5c4=O)n3)cc2o1 [Example 16]
17 | 131 | <23 | 18 | COc1ccc([C@@H](O)Cn2nnc(Cn3cnc4scc(C(N)=O)c4c3=O)n2)cc1 [Example 17]
18 | 143 | <23 | <4 | N#Cc1ccc([C@@H](O)Cn2nnc(Cn3cnc4scc(C(N)=O)c4c3=O)n2)s1 [Example 18]
